From BigSolDB 2.1

Nc1cccc2ccccc12
solubility (mole fraction)
Conditions	273.15 K	278.15 K	283.15 K	288.15 K	293.15 K	298.15 K	303.15 K	308.15 K
in acetone	0.552	0.59	0.636	0.684	0.724	0.778	0.839	0.898
in acetonitrile	0.527	0.572	0.619	0.658	0.708	0.766	0.829	0.878
in cyclohexane	–	0.00758	0.00992	0.014	0.0185	0.0263	0.0364	0.0621
in ethanol	0.133	0.176	0.231	0.323	0.431	0.555	0.698	0.833
in ethyl acetate	0.49	0.528	0.57	0.611	0.66	0.728	0.788	0.863
in isobutanol	0.0584	0.0819	0.118	0.157	0.251	0.382	0.585	0.841
in isopropanol	0.0524	0.0814	0.123	0.198	0.294	0.461	0.637	0.845
in methanol	0.192	0.245	0.296	0.375	0.477	0.591	0.703	0.845
in n-butanol	0.112	0.145	0.194	0.247	0.353	0.487	0.664	0.84
in n-butyl acetate	0.441	0.485	0.532	0.585	0.645	0.706	0.777	0.849
in n-heptane	0.00549	0.0073	0.00879	0.0115	0.0155	0.0205	0.026	0.0346
in n-propanol	0.0925	0.133	0.181	0.256	0.365	0.512	0.669	0.838
